Experimental data reported in US9732060B2, “Aminotriazine derivative and pharmaceutical composition comprising the same” (Shionogi & Co., Ltd., priority 2013, dated 2017).
Read-outs that look alike come from different tables or passages of the source.

Tests used:
[1] = Pharmacokinetic test (BA, CLtot); type: in vivo; settings: rat, plasma, SD rats
Procedure: • (1) Animals: SD rats were used • (2) Breeding conditions: SD rats were allowed to freely take solid food and sterilized tap water. • (3) Dose and grouping: orally or intravenously administered at a predetermined dose; grouping was as follows (Dose depends on the compound)
Oral administration: 1 mg/kg (n=2)
The total body clearance (CLtot) was calculated by dividing the dose by the AUC of the intravenous administration group.

Rat P2X3 receptor = Rat P2X3 receptor (Rattus norvegicus (Rat), UniProt P49654); assay: Evaluation of rat P2X3 receptor inhibitory activity in the presence of rat serum albumin (RSA); type: cell-based; settings: read-out: ratP2X3 + RSA IC50
Chain of Rat P2X3 receptor (P49654 whole entry): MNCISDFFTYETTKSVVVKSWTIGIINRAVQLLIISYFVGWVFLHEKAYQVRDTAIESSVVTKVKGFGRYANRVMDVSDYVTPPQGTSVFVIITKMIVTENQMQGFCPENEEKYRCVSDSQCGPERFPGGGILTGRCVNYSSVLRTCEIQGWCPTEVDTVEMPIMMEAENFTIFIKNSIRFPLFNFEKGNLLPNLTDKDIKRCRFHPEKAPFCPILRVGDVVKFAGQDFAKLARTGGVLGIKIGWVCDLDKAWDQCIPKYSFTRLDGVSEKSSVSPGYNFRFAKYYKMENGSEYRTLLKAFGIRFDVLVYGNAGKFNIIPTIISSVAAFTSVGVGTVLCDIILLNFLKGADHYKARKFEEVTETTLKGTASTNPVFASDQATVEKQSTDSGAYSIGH
Procedure: Rat P2X3 receptor gene (GenBank accession number NM_031075) was expressed in C6BU-1 cell. The C6BU-1 cells were seeded in a 96-well micro titer plate at a concentration of 2500 cells/well and cultured in the medium (7.0% fetal bovine serum, 7.0% horse serum, and 1% antibiotic and antifungal in DMEM) for one day at 37° C. under 5% carbon dioxide atmosphere. The plasmid was transfected into the cells using transfection reagent FuGENE6 (Promega). The transfected cells were cultured in the medium for one day at 37° C. under 5% carbon dioxide atmosphere. The medium was replaced with 4 μM Fluo-4-AM solution (pH 7.5) containing 20 mM HEPES, 137 mM NaCl, 5.27 mM KCl, 0.9 mM MgCl2, 1.26 mM CaCl2, 5.6 mM D-glucose, 2.5 mM probenecid, 10% RSA, and 0.08% Pluronic F-127, and incubated at 37° C. under 5% dioxide carbon atmosphere for one hour. The plate was washed with washing buffer (20 mM HEPES, 137 mM NaCl, 5.27 mM KCl, 0.9 mM MgCl2, 1.26 mM CaCl2, 5.6 mM D-glucose, 2.5 mM probenecid, pH 7.5), and each well was added with 40 μL of this buffer. The plate was placed in High-Throughput Screening System FDSS 3000 (Hamamatsu Photonics K.K.). Measurement of fluorescence intensity by FDSS 3000 was started, and 40 μL of DMSO solutions containing 1% RSA (final concentrations) and different concentrations of the test compound as prepared by dilution with dilution buffer (20 mM HEPES, 137 mM NaCl, 5.27 mM KCl, 0.9 mM MgCl2, 1.26 mM CaCl2, 5.6 mM D-glucose, 2.5 mM probenecid, 0.1% Pluronic F-127, pH 7.5) were dispensed to each well through the built-in automatic dispenser. Five minutes after, 50 nM ATP solution (50 μL) prepared by dilution with the dilution buffer was dispensed through the built-in automatic dispenser, and the measurement of fluorescence intensity was continued for 4 min. For each well, the specific maximum fluorescence intensity was calculated as the ratio of the maximum fluorescence intensity after addition of the ATP solution to the fluorescence intensity at the starting of the measurement. […] FDSS software (Hamamatsu Photonics K.K.) was used for calculation of the specific maximum fluorescence intensity. IC50 was calculated using Microsoft Excel (Microsoft Corporation) and XLfit (idbs Ltd.).

human P2X3 receptor = human P2X3 receptor (Homo sapiens (Human), UniProt P56373); assay: Evaluation of human P2X3 receptor inhibitory activity (FLIPR Ca fluorescence, ATP-evoked); type: cell-based; settings: C6BU-1 cells stably expressing human P2X3 receptor
Chain of human P2X3 receptor (P56373 whole entry): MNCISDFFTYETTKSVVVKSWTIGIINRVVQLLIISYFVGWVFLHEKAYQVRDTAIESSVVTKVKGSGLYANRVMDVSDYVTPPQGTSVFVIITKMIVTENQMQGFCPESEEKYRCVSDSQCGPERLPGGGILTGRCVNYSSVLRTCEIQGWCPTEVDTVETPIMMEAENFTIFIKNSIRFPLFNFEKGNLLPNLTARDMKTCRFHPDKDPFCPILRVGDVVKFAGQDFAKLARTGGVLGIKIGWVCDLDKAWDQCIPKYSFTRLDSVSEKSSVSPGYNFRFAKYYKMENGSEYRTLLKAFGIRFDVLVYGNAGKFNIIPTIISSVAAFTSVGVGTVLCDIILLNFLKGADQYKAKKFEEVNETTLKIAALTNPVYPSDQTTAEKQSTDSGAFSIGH
Procedure: Stably expressing cell line (C6BU-1 cell transfected with human P2X3 receptor gene (GenBank accession number Y07683) was used. The cells were seeded in a 384-well PDL-coated microtiter plate at a concentration of 3000 cells/well and cultured in the medium (8.3% fetal bovine serum, 8.3% horse serum, and 1% antibiotic and antifungal in DMEM) for one day at 37° C. under 5% carbon dioxide atmosphere. The medium was replaced with 4 μM Fluo-3-AM solution (20 mM HEPES, 137 mM NaCl, 2.7 mM KCl, 0.9 mM MgCl2, 5.0 mM CaCl2, 5.6 mM D-glucose, 2.5 mM probenecid, 0.5% BSA, and 0.04% Pluronic P-127, pH 7.5) and incubated at 37° C. under 5% dioxide carbon atmosphere for one hour. The plate was washed with washing buffer (20 mM HEPES, 137 mM NaCl, 2.7 mM KCl, 0.9 mM MgCl2, 5.0 mM CaCl2, 5.6 mM D-glucose, 2.5 mM probenecid, pH 7.5), and each well was added with 20 μL of the washing buffer. The plate was placed in High-Throughput Screening System FLIPR 384 (Molecular Device Co.). Measurement of fluorescence intensity by […] was started, and 20 μL of DMSO solutions containing different concentrations of the test compound as prepared by dilution with dilution buffer (20 mM HEPES, 137 mM NaCl, 2.7 mM KCl, 0.9 mM MgCl2, 5.0 mM CaCl2, 5.6 mM D-glucose, 2.5 mM probenecid, 0.1% Pluronic F-127, pH 7.5) were dispensed to each well through the built-in automatic dispenser. Five minutes after, 150 nM ATP solution (25 μL) prepared by dilution with the dilution buffer was dispensed through the built-in automatic dispenser, and the measurement of fluorescence intensity was continued for 4 min. For each well, the specific maximum fluorescence intensity was calculated as the ratio of the maximum fluorescence intensity after addition of the ATP solution to the fluorescence intensity at the starting of the measurement. […] The specific maximum fluorescence intensify and IC50 were calculated using Spotfire (Science & Technology Systems. Inc.)

[2] = Solubility test (1% DMSO, artificial intestinal juice pH 6.8); type: physicochemical; settings: artificial intestinal juice pH 6.8 with 1% DMSO, 25 °C, fassgf or other biorelevant, kinetic from dmso stock, artificial intestinal juice pH 6.8, 25 degrees Celsius, read-out: Solubulity
Procedure: The solubility of a compound was determined under a condition in which 1% DMSO was added. 10 mmol/L compound solution was prepared using DMSO, and then 2 μL of the compound solution was added to 198 μL of artificial intestinal juice in pH 6.8 (to 250 mL of 0.2 mol/L potassium dihydrogen phosphate reagent solution was added 118 mL of 0.2 mol/L NaOH reagent solution and water to provide a final volume of 1000 mL). After standing at 25 degrees Celsius for 18 hours, the mixed solution was filtrated with suction. The filtrate was diluted twice with methanol/water (1/1), and then a concentration in the filtration was measured with HPLC or LC/MS/MS by the absolute calibration method.

CYP1A2 = CYP1A2 (Homo sapiens (Human), UniProt P05177); assay: CYP inhibition test, CYP1A2; type: in vitro ADME; settings: pooled human hepatic microsome; 7-ethoxyresorufin-O-deethylation
Chain of CYP1A2 (P05177 whole entry): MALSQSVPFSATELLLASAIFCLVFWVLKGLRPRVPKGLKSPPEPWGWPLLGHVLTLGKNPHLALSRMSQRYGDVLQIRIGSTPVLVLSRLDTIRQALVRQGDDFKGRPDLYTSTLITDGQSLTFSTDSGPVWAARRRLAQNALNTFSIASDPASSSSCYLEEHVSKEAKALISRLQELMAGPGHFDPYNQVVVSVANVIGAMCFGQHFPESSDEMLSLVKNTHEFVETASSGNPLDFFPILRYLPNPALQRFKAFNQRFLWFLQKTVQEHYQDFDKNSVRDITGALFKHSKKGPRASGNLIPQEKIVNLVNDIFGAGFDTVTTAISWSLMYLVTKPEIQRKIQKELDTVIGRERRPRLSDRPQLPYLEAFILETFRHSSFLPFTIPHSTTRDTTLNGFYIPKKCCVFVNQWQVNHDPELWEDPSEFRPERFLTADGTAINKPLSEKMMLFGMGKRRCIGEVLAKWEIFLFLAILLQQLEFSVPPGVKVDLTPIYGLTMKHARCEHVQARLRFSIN
Procedure: (§1) Using commercially available pooled human hepatic microsome, and employing, as markers, 7-ethoxyresorufin-O-deethylation (CYP1A2), tolbutamide methyl-hydroxylation (CYP2C9), mephenytoin 4′-hydroxylation (CYP2C19), dextromethorphan O-demethylation (CYP2D6), and terfenedine hydroxylation as typical substrate metabolism reactions of human main five CYP enzyme forms (CYP1A2, 2C9, 2C19, 2D6, 3A4), an inhibitory degree of each metabolite production amount by a test compound was assessed.
(§2) The reaction conditions were as follows: substrate, 0.5 μmol/L ethoxyresorufin (CYP1A2), 100 μmol/L tolbutamide (CYP2C9), 50 μmol/L S-mephenitoin (CYP2C19), 5 μmol/L dextromethorphan (CYP2D6), 1 μmol/L terfenedine (CYP3A4); reaction time, 15 minutes; reaction temperature, 37° C. enzyme, pooled human hepatic microsome 0.2 mg protein/mL; test, drug concentration, 1.0, 5.0, 10, 20 μmol/L (four points).
(§3) Each five kinds of substrates, human hepatic microsome, or a test drug in 50 mmol/L Hepes buffer as a reaction solution was added to a […] at the composition as described above, NADPH, as a cofactor was added to initiate metabolism reactions as markers and, after the incubation at 37° C. for 15 minutes, a methanol/acetonitrile=1/1 (v/v) solution was added to stop the reaction. After the centrifugation at 3000 rpm for 15 minutes, resorufin (CYP1A2 metabolite) in the supernatant was quantified by a fluorescent multilabel counter and tributamide hydroxide (CYP2CP metabolite), mephenytoin 4′hydroxide (CYP2C19 metabolite), […] (CYP2D6 metabolite), and terfenadine alcohol (CYP3A4 metabolite) were quantified by LC/MS/MS.
(§4) Addition of only DMSO being a solvent dissolving a drug to a reaction system was adopted as a control (100%), remaining activity (%) was calculated at each concentration of a test drug added as the solution and IC50 was calculated by reverse presumption by a logistic model using a concentration and an inhibition rate.

CYP2C9 = CYP2C9 (Homo sapiens (Human), UniProt P11712); assay: CYP inhibition test, CYP2C9; type: in vitro ADME; settings: pooled human hepatic microsome; tolbutamide methyl-hydroxylation
Chain of CYP2C9 (P11712 whole entry): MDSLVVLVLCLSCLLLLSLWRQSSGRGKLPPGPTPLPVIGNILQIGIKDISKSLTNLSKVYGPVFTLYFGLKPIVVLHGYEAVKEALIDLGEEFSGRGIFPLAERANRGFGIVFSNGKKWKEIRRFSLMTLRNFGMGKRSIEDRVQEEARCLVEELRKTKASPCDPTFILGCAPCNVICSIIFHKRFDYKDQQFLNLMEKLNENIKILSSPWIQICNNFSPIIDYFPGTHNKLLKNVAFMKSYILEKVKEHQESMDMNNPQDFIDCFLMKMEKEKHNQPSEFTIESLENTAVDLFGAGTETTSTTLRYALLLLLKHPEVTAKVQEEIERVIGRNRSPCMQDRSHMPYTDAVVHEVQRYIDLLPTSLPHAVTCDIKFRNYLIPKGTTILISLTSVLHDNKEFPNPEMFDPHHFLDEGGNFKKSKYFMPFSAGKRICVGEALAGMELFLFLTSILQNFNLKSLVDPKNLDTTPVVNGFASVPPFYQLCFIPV
Procedure: as §1, §2, §3, §4

CYP2C19 = CYP2C19 (Homo sapiens (Human), UniProt P33261); assay: CYP inhibition test, CYP2C19; type: in vitro ADME; settings: pooled human hepatic microsome; mephenytoin 4′-hydroxylation
Chain of CYP2C19 (P33261 whole entry): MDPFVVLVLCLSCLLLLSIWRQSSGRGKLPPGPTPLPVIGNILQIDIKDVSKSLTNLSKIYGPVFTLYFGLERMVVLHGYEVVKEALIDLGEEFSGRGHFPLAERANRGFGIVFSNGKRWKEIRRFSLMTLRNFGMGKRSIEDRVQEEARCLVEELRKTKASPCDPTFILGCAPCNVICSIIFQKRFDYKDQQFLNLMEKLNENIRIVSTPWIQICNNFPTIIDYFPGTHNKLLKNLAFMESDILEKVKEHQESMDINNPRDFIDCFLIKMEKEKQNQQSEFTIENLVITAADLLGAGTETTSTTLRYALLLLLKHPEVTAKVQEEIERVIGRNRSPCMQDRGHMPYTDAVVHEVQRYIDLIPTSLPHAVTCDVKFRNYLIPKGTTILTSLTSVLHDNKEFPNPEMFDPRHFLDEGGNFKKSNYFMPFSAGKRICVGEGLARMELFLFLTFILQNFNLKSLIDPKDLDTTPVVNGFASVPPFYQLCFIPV
Procedure: as §1, §2, §3, §4

CYP2D6 = CYP2D6 (Homo sapiens (Human), UniProt P10635); assay: CYP inhibition test, CYP2D6; type: in vitro ADME; settings: pooled human hepatic microsome; dextromethorphan O-demethylation
Chain of CYP2D6 (P10635 whole entry): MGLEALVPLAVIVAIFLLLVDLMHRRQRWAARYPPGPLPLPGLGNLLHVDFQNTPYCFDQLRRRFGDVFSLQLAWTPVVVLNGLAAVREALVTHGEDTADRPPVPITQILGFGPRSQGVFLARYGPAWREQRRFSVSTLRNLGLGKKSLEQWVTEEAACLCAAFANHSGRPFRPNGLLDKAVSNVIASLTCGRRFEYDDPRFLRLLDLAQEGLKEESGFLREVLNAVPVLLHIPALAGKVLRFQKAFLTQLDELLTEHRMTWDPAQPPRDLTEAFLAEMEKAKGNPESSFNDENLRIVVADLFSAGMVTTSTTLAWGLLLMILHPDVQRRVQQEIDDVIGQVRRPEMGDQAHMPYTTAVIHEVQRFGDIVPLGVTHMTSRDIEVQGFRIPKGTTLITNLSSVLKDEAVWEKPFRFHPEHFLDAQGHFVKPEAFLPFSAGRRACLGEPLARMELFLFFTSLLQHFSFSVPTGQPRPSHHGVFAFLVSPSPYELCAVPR
Procedure: as §1, §2, §3, §4

CYP3A4 = CYP3A4 (Homo sapiens (Human), UniProt P08684); assay: CYP inhibition test, CYP3A4; type: in vitro ADME; settings: pooled human hepatic microsome; terfenedine hydroxylation
Chain of CYP3A4 (P08684 whole entry): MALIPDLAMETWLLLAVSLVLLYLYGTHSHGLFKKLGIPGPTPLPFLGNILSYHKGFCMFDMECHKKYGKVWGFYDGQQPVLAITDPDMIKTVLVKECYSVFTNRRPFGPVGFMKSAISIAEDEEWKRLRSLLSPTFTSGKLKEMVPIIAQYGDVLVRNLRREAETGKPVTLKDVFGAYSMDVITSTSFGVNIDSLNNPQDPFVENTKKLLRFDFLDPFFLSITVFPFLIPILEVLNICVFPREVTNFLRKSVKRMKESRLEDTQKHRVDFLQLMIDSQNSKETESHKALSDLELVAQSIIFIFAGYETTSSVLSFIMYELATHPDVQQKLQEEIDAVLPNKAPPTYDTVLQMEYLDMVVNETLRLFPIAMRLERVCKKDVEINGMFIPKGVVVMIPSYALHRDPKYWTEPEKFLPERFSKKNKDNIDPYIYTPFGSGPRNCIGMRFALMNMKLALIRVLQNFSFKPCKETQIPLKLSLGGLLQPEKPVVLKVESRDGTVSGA
Procedure: as §1, §2, §3, §4

[3] = intravenous administration 0.5 mg/kg
[4] = intravenous administration 0.5 mg/kg, read-out: AUC (iv)
[5] = oral administration 1 mg/kg, read-out: AUC (po)

| SMILES | IC50 (CYP1A2) [µM] | IC50 (CYP2C9) [µM] | IC50 (CYP2C19) [µM] | IC50 (CYP2D6) [µM] | IC50 (CYP3A4) [µM] | also measured |
| --- | --- | --- | --- | --- | --- | --- |
| C[C@@H](Cn1c(=O)[nH]/c(=N\c2ccc(Oc3cccc(Cl)n3)cc2)n(Cc2ccc(Cl)cc2)c1=O)C(=O)O [Compound I-014] |  |  |  |  |  | clearance [1, 3]: 4 mL/min/kg; AUC [1, 4]: 2300 ng·h/mL; AUC [1, 5]: 4890 ng·h/mL |
| O=C(O)C1(Cn2c(=O)[nH]/c(=N\c3ccc(Oc4cccc(F)n4)cc3)n(Cc3ccc(Cl)cc3)c2=O)CC1 [Compound I-017] |  |  |  |  |  | clearance [1, 3]: 2.3 mL/min/kg; AUC [1, 4]: 3790 ng·h/mL; AUC [1, 5]: 6110 ng·h/mL |
| C[C@@H](Cn1c(=O)[nH]/c(=N\c2ccc(Oc3ccc(OC(F)F)cn3)cc2)n(Cc2ccc(Cl)cc2)c1=O)C(=O)O [Compound I-022] |  |  |  |  |  | IC50 (Rat P2X3 receptor): 0.011 µM |
| COC(=O)[C@@H](C)Cn1c(=O)[nH]/c(=N\c2ccc(Oc3ccc(F)cn3)cc2)n(Cc2ccc(F)cc2F)c1=O [Compound I-025] |  |  |  |  |  | IC50 (human P2X3 receptor): 0.023 µM |
| Cc1ccc(Cn2c(=O)n(C[C@H](C)C(=O)O)c(=O)[nH]/c2=N\c2ccc(Oc3ccc(C(F)(F)F)cn3)cc2)cc1 [Compound I-038] |  |  |  |  |  | solubility at 18 h [2]: > 50 µM |
| Cc1ccc(Cn2c(=O)n(C[C@H](C)C(=O)O)c(=O)[nH]/c2=N\c2ccc(Oc3cccc(C(F)(F)F)n3)cc2)cc1 [Compound I-039] |  |  |  |  |  | solubility at 18 h [2]: > 50 µM |
| Cc1ccc(Cn2c(=O)n(CC(C)(C)C(=O)O)c(=O)[nH]/c2=N\c2ccc(Oc3ccc(F)cn3)cc2)cc1 [Compound I-041] | > 20 | > 20 | > 20 | > 20 | > 20 | solubility at 18 h [2]: > 50 µM |
| Cc1ccc(Oc2ccc(/N=c3\[nH]c(=O)n(CC(C)(C)C(=O)O)c(=O)n3Cc3ccc(Cl)cc3)cc2)nc1 [Compound I-058] |  |  |  |  |  | clearance [1, 3]: 5.8 mL/min/kg; AUC [1, 4]: 1510 ng·h/mL; AUC [1, 5]: 2030 ng·h/mL |
| COc1ccnc(Oc2ccc(/N=c3\[nH]c(=O)n(C[C@H](C)C(=O)O)c(=O)n3Cc3ccc(Cl)cc3)cc2)c1 [Compound I-069] | > 20 | > 20 | > 20 | > 20 | > 20 |  |
| Cc1ccc(Cn2c(=O)n(C[C@H](C)C(=O)O)c(=O)[nH]/c2=N\c2ccc(Oc3ccc(Cl)cn3)cc2)cc1 [Compound I-100] |  |  |  |  |  | IC50 (Rat P2X3 receptor): 0.009 µM |
| Cc1ccc(Cn2c(=O)n([C@@H](C)[C@@H](C)C(=O)O)c(=O)[nH]/c2=N\c2ccc(Oc3cccc(F)n3)cc2)cc1 [Compound I-106] | > 20 | > 20 | > 20 | > 20 | > 20 |  |
| Cc1ccc(Cn2c(=O)n([C@@H](C)[C@@H](C)C(=O)O)c(=O)[nH]/c2=N\c2ccc(Oc3ccc(C)cn3)cc2)cc1 [Compound I-113] |  |  |  |  |  | IC50 (Rat P2X3 receptor): 0.01 µM |
| C[C@@H](Cn1c(=O)[nH]/c(=N\c2ccc(Oc3ccccn3)cc2)n(Cc2ccc(Cl)cc2)c1=O)C(=O)O [Compound I-127] |  |  |  |  |  | clearance [1, 3]: 3.8 mL/min/kg; AUC [1, 4]: 2330 ng·h/mL; AUC [1, 5]: 2460 ng·h/mL |
| COc1nccc(Oc2ccc(/N=c3\[nH]c(=O)n([C@@H](C)[C@@H](C)C(=O)O)c(=O)n3Cc3ccc(Cl)cc3)cc2)n1 [Compound R-010] | > 20 | > 20 | > 20 | > 20 | > 20 |  |
| C[C@@H](Cn1c(=O)[nH]/c(=N\c2ccc(Oc3cnc(Cl)cn3)cc2)n(Cc2ccc(Cl)cc2)c1=O)C(=O)O [Compound R-014] | > 20 | > 20 | > 20 | > 20 | > 20 | IC50 (Rat P2X3 receptor): 0.006 µM |
| CC(C)(Cn1c(=O)[nH]/c(=N\c2ccc(Oc3cnc(Cl)cn3)cc2)n(Cc2ccc(Cl)cc2)c1=O)C(=O)O [Compound R-027] | > 20 | > 20 | > 20 | > 20 | > 20 |  |
| C[C@@H](Cn1c(=O)[nH]/c(=N\c2ccc(Oc3cccnn3)c(F)c2)n(Cc2ccc(Cl)cc2)c1=O)C(=O)O [Compound R-037] |  |  |  |  |  | IC50 (Rat P2X3 receptor): 0.008 µM |
| COc1cc(Oc2ccc(/N=c3\[nH]c(=O)n(C[C@H](C)C(=O)O)c(=O)n3Cc3ccc(Cl)cc3)cc2)cc(F)n1 [Compound R-058] | > 20 | > 20 | > 20 | > 20 | > 20 |  |
